Measured values published in US11033597B2, “Dermatological kit comprising compositions based on hibiscus flower and buriti oil” (MEDICAL BRANDS RESEARCH B.V., priority 2014, dated 2021).
“Also recorded” adds a separate entry of the source.

Test system: human skin explants
Assay: Exfoliating action of plant extracts on human skin explants ex vivo (morphology of the stratum corneum)
Type: cell-based
Settings: for Exfoliating activity, Result: day 4, compared to control group TJ
Method: Particular attention is paid to the morphology of the stratum corneum.
Activity is assessed by examination of the morphology.
The explants were stored in BEM (BIO-EC's Explants Medium) at 37° C. in a humid atmosphere enriched with 5% C02.
The test product is applied topically at a rate of 2 μl per explant, using a spatula to spread, on days 0, 2 and 3.
On day 0, the 3 explants of batch T0 were removed and cut into 2. One portion was fixated in a buffered formalin solution and the second part was frozen at −80° C. At Day 4, the 3 explants of each batch were taken and treated in the same manner.
After a fixation of 24 hours in buffered formalin, the samples were dried and soaked in paraffin using an automatic dehydration system, Leica TP 1020. They were embedded in a resin using a coating system Leica EG 1160.
Slices of 5 microns have been produced using a microtome type Minot Leica RM 2125 and mounted on microscope slides type histological SuperFrost®.
Microscopic observations were performed by optical microscopy, using a Leica Orthoplan microscope and an Olympus BX43. The shots were made with an Olympus DP72 camera and Cell ^ D software.
Paraffin sections were stained with Masson's trichrome stain, Goldner variant. Microscopic examination was carried out to assess the general morphology of the dermal and epidermal structures.
Particular attention was paid to the morphology of the Stratum Corneum.

Compound: O=C(O)c1ccccc1O [Product P1, Natural Salicylic Acid]
- exfoliation of the upper layers of the stratum corneum (morphology) (0.25% (C3), day 4): appeared normal; also recorded: does not present a significant exfoliating activity
- exfoliation of the upper layers of the stratum corneum (morphology) (0.5% (C2), day 4): appeared normal; also recorded: does not present a significant exfoliating activity
- exfoliation of the upper layers of the stratum corneum (morphology) (1% (C1), day 4): light exfoliation of the upper layers
- number of cell layers of the SC (1% (C1), day 4): slightly reduced
- Exfoliating activity, Result (1% (C1)): 4

Compound: CC(O)C(=O)O (stereo not drawn) [Product P3, Lactic acid]
- exfoliation of the upper layers of the stratum corneum (morphology) (0.25% (C3), day 4): appeared normal; also recorded: no appreciable exfoliating activity
- exfoliation of the upper layers of the stratum corneum (morphology) (0.5% (C2), day 4): very light exfoliation of the upper layers
- Exfoliating activity, Result (0.5% (C2)): 2
- exfoliation of the upper layers of the stratum corneum (morphology) (1% (C1), day 4): light exfoliation of the upper layers
- number of cell layers of the SC (1% (C1), day 4): slightly reduced
- Exfoliating activity, Result (1% (C1)): 4

Compound: O=C(O)CO [Product P4, glycolic acid]
- exfoliation of the upper layers of the stratum corneum (morphology) (0.25% (C3), day 4): appeared normal; also recorded: no appreciable exfoliating activity
- exfoliation of the upper layers of the stratum corneum (morphology) (0.5% (C2), day 4): very light and irregular exfoliation of the upper layers
- Exfoliating activity, Result (0.5% (C2)): 3
- exfoliation of the upper layers of the stratum corneum (morphology) (1% (C1), day 4): light and irregular exfoliation of the upper layers; also recorded: slight irregular exfoliation
- Exfoliating activity, Result (1% (C1)): 4

Compound: O=C(O)C(Cl)(Cl)Cl [Product P6, trichloroacetic acid]
- exfoliation of the upper layers of the stratum corneum (morphology) (0.25% (C3), day 4): appeared normal; also recorded: no significant activity in the exfoliation
- exfoliation of the upper layers of the stratum corneum (morphology) (0.5% (C2), day 4): light and irregular exfoliation of the upper layers; also recorded: uneven exfoliation
- number of cell layers of the SC (0.5% (C2), day 4): slightly reduced
- Exfoliating activity, Result (0.5% (C2)): 4
- exfoliation of the upper layers of the stratum corneum (morphology) (1% (C1), day 4): moderate exfoliation of the upper layers
- number of cell layers of the SC (1% (C1), day 4): moderately reduced
- Exfoliating activity, Result (1% (C1)): 6
- exfoliating activity, comparison of products (especially samples of 1% concentration, day 4): best exfoliating activity
